Assays:
[1] = test system: KU812 (Chronic Myelogenous Leukemia); assay: combination Emax (second highest fraction inhibited in the dose matrix, 72 h); higher = more inhibition; extreme values may be limits of the assay
Outline: (§1)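 After 24 hours at 37°C and 5% CO2 in 1536-well plates, cells in DMEM/F12 or RPMI plus 10% FBS received two-drug dose matrices for 72 hours. Viability came from CellTiter-Glo 2.0 luminescence and was scaled as inhibition, anchored at 0 by vehicle wells and at 1 by blank wells. Combination Emax is taken as the second-highest inhibition in the matrix, and Bliss excess as the observed combination effect less EA + EB − EA·EB, with EA and EB the single-agent effects.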

[2] = test system: KU812 (Chronic Myelogenous Leukemia); assay: Bliss excess, mean over the matrix (fraction); higher = more synergy
Outline: as §1

[3] = test system: COR-L279 (Small Cell Lung Carcinoma); assay: as above
Outline: as §1

M059J (Glioblastoma) = assay: as above
Outline: as §1

[4] = test system: NCI-H3122 (Lung Adenocarcinoma); assay: as above
Outline: as §1

[5] = test system: SK-GT-4 (Esophageal Adenocarcinoma); assay: as above
Outline: as §1

[6] = test system: ST486 (Burkitt's Lymphoma); assay: as above
Outline: as §1

[7] = test system: NCI-H929 (Plasma Cell Myeloma); assay: as above
Outline: as §1

[8] = test system: NCI-H526 (Small Cell Lung Carcinoma); assay: as above
Outline: as §1

[9] = test system: DMS-114 (Small Cell Lung Carcinoma); assay: as above
Outline: as §1

[10] = test system: T-T (Esophageal Squamous Cell Carcinoma); assay: as above
Outline: as §1

[11] = test system: NCI-H520 (Squamous Cell Lung Carcinoma); assay: as above
Outline: as §1

NCI-H2731 (Mesothelioma) = assay: as above
Outline: as §1

[12] = test system: VMRC-RCZ (Kidney Carcinoma); assay: as above
Outline: as §1

[13] = test system: KP-3 (Pancreatic Carcinoma); assay: as above
Outline: as §1

[14] = test system: KYSE-270 (Esophageal Squamous Cell Carcinoma); assay: as above
Outline: as §1

[15] = test system: MOG-G-CCM (Low Grade Glioma); assay: as above
Outline: as §1

[16] = test system: NCCIT (Other Solid Carcinomas); assay: as above
Outline: as §1

SJSA-1 (Osteosarcoma) = assay: as above
Outline: as §1

[17] = test system: CW-2 (Colorectal Carcinoma); assay: as above
Outline: as §1
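Throughout, for Bliss excess, mean over the matrix: after 72 h of two-drug dosing.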

Row | Structure (SMILES) | combination Emax [1] | Bliss excess [2] | Bliss excess [3] | Bliss excess (M059J (Glioblastoma)) | Bliss excess [4] | Bliss excess [5] | Bliss excess [6] | Bliss excess [7] | Bliss excess [8] | Bliss excess [9] | Bliss excess [10] | Bliss excess [11] | Bliss excess (NCI-H2731 (Mesothelioma)) | Bliss excess [12] | Bliss excess [13] | Bliss excess [14] | Bliss excess [15] | Bliss excess [16] | Bliss excess (SJSA-1 (Osteosarcoma)) | Bliss excess [17]
1 | Cc1c2c(nn1C)CSCc1cc(n(C)n1)CSc1cc(c3ccccc3c1)OCCCc1c(C(=O)O)n(C)c3c-2c(Cl)ccc13 [AZD5991] + CS(=O)(=O)CCNCc1ccc(-c2ccc3ncnc(Nc4ccc(OCc5cccc(F)c5)c(Cl)c4)c3c2)o1 [Lapatinib] (first compound max 1 µM, 7x7, partner max 10 µM) | 0.867 | -0.0005 | -0.0053 | -0.0103 | -0.0164 | 0.0391 | -0.0655 | -0.0113 | 0.0226 | -0.0358 | 0.0522 | 0.0111 | 0.0234 | -0.0195 | -0.003 | 0.016 | -0.0322 | -0.0119 | -0.0115 | 0.0142
2 | N#Cc1cnc(Nc2cc(NC[C@H]3CNCCO3)c(C(F)(F)F)cn2)cn1 [SRA737] + O=c1[nH]cc(F)c(=O)[nH]1 [5-Fluorouracil] (first compound max 10 µM, 7x7, partner max 20 µM) | 0.606 | -0.0726 | 0.077 | 0.0052 | 0.0315 | -0.0187 | 0.0098 | 0.0184 | 0.0854 | -0.0757 | 0.0483 | -0.0306 | -0.0374 | -0.0163 | – | 0.127 | -0.001 | -0.0561 | 0.0126 | 0.0039
3 | O=C(c1cc(Cc2n[nH]c(=O)c3ccccc23)ccc1F)N1CCN(C(=O)C2CC2)CC1 [Olaparib] + COc1nnc2ccc(N3CCC(c4ccc(OCCN5CCN(C)C(=O)[C@H]5C)cc4)CC3)nn12 [AZD5153] (first compound max 10 µM, 7x7, partner max 1 µM) | 0.908 | -0.0778 | 0.0327 | -0.0672 | -0.0021 | -0.0894 | -0.0433 | -0.0516 | -0.0689 | -0.13 | -0.0283 | -0.0134 | -0.0208 | -0.0243 | -0.0554 | 0.0235 | -0.0569 | -0.0739 | -0.0323 | -0.0592
4 | C[C@@H](Oc1cc(-c2cnn(C3CCNCC3)c2)cnc1N)c1c(Cl)ccc(F)c1Cl [Crizotinib] + CC1=C(C(=CC=C1)Cl)NC(=O)C2=CN=C(S2)NC3=CC(=NC(=N3)C)N4CCN(CC4)CCO [Dasatinib] (first compound max 10 µM, 7x7, partner max 2 µM) | 1 | 0.0121 | 0.0599 | 0.024 | -0.0882 | 0.0033 | 0.0506 | -0.0147 | -0.0339 | -0.0562 | 0.0322 | 0.0375 | 0.0443 | 0.0518 | -0.057 | 0.0481 | 0.0574 | -0.0416 | -0.0238 | -0.0315
5 | C=CCn1c(=O)c2cnc(Nc3ccc(N4CCN(C)CC4)cc3)nc2n1-c1cccc(C(C)(C)O)n1 [AZD1775] + CCc1c2c(nc3ccc(O)cc13)-c1cc3c(c(=O)n1C2)COC(=O)[C@]3(O)CC [SN-38] (first compound max 1 µM, partner max 0.3 µM) | 0.87 | -0.0318 | -0.0425 | 0.0051 | -0.0233 | 0.0211 | -0.0359 | -0.0303 | -0.0476 | -0.0439 | -0.031 | -0.0637 | -0.0744 | -0.0623 | -0.067 | 0.0029 | -0.053 | -0.0342 | -0.0742 | -0.0515
6 | C[C@@H](Nc1cc(F)cc(F)c1)c1cc(C(=O)N(C)C)cc2c(=O)cc(N3CCOCC3)oc12 [AZD8186] + C1CN(CCC1(C(=O)N[C@@H](CCO)C2=CC=C(C=C2)Cl)N)C3=NC=NC4=C3C=CN4 [AZD5363] (first compound max 10 µM, 7x7, partner max 10 µM) | 0.161 | -0.053 | 0.0622 | -0.0145 | 0.0211 | -0.0478 | -0.0265 | -0.0035 | -0.0238 | 0.0545 | 0.0073 | -0.034 | -0.0476 | -0.0134 | -0.0207 | 0.0302 | -0.058 | 0.0368 | -0.0208 | -0.0086
7 | C[C@@H](Oc1cc(-c2cnn(C3CCNCC3)c2)cnc1N)c1c(Cl)ccc(F)c1Cl [Crizotinib] + Cn1cnc2c(F)c(Nc3ccc(Br)cc3Cl)c(C(=O)NOCCO)cc21 [Selumetinib] (first compound max 10 µM, 7x7, partner max 10 µM) | 1 | -0.0466 | -0.0192 | -0.0562 | -0.0479 | -0.0405 | -0.0819 | -0.0421 | -0.0142 | -0.0814 | 0.0159 | -0.0779 | -0.0382 | -0.0338 | -0.0229 | 0.0039 | -0.0423 | -0.0503 | 0.0262 | -0.0423

Reference: the supplement of paper PMC11061612
